Measured values as given in US7754445B2, “Method for the enzymatic production of a curing agent and its fluid state” (TMI Europe, priority 2001, dated 2010).

Assay: monitoring the stability of the solution (hypothiocyanite concentration in water leaving the reactor)
Format: physicochemical
Excerpt: The hypothiocyanite ions (OSCN^−) are able to react with the sulfhydryl groups of a 5,5′-dithiobis (2-nitrobenzoic acid) molecule which has previously been reduced in the presence of an excess of sodium borohydride.
This reduced molecule absorbs light at a wavelength of 412 nm.
When the hypothiocyanite ions (OSCN^−) oxidize the sulfhydryl groups, the absorbance at 412 nm decreases in proportion to the quantity of ions which are present in the sample, thereby enabling them to be quantified.
The methods described above are used to monitor the change in the concentration of hypothiocyanite ion, i.e. OSCN^−, in solutions leaving the reactor, the results of which are obtained are illustrated in FIGS. 3 and 4, which depict the curve for the changes in the concentration of hypothiocyanite ion, OSCN^−, in the water leaving the reactor over a period of 1 day (FIGS. 4) and 4 days (FIG. 3).

Compound: N#CSO [OSCN^−, hypothiocyanite ion]
- concentration of OSCN^− (after 10 hours (FIG. 4)): 500000 µM
- fall in concentration of OSCN^− (after 20 hours (FIG. 4)): 50%
- residual concentration of hypothiocyanite ion, relative to the initial concentration (after 80 hours (FIG. 3)): 16%
- concentration of OSCN^− (initial, solution leaving the reactor (FIG. 4)): 600000 µM
